Test results reported in the NIST ThermoML archive (doi:10.1016/j.tca.2013.03.025).

Assay: xn = mol fraction of the nth substance listed
Details: 101 kPa, Liquid; for viscosity: Concentric cylinders viscometry; for mass density: Vibrating tube method

CCCCOC(=O)C(C)O (stereo not given) [butyl 2-hydroxypropanoate] + CC(O)CO
Details | mass density [kg/m3] | viscosity [mPa·s]
288.15 K, x1 = 0.0999 | 1028.94 | 49.57
288.15 K, x1 = 0.2 | 1020.52 | 32.76
288.15 K, x1 = 0.3 | 1014.01 | 22.44
288.15 K, x1 = 0.3999 | 1008.69 | 16.49
288.15 K, x1 = 0.4998 | 1004.11 | 12.5
288.15 K, x1 = 0.6 | 999.883 | 9.662
288.15 K, x1 = 0.6996 | 996.116 | 7.754
288.15 K, x1 = 0.7999 | 992.836 | 6.357
288.15 K, x1 = 0.9 | 990.017 | 5.352
288.15 K, x1 = 1 | 987.269 | 4.628
293.15 K, x1 = 0.0999 | 1025.09 | 36.74
293.15 K, x1 = 0.2 | 1016.49 | 24.82
293.15 K, x1 = 0.3 | 1009.81 | 17.35
293.15 K, x1 = 0.3999 | 1004.36 | 12.96
293.15 K, x1 = 0.4998 | 999.672 | 9.963
293.15 K, x1 = 0.6 | 995.344 | 7.814
293.15 K, x1 = 0.6996 | 991.481 | 6.325
293.15 K, x1 = 0.7999 | 988.111 | 5.256
293.15 K, x1 = 0.9 | 985.199 | 4.454
293.15 K, x1 = 1 | 982.366 | 3.88
298.15 K, x1 = 0.0999 | 1021.19 | 27.81
298.15 K, x1 = 0.2 | 1012.41 | 19.18
298.15 K, x1 = 0.3 | 1005.65 | 13.58
298.15 K, x1 = 0.3999 | 1000 | 10.3
298.15 K, x1 = 0.4998 | 995.208 | 8.084
298.15 K, x1 = 0.6 | 990.768 | 6.393
298.15 K, x1 = 0.6996 | 986.821 | 5.252
298.15 K, x1 = 0.7999 | 983.363 | 4.394
298.15 K, x1 = 0.9 | 980.366 | 3.772
298.15 K, x1 = 1 | 977.448 | 3.307
303.15 K, x1 = 0.0999 | 1017.29 | 21.45
303.15 K, x1 = 0.2 | 1008.34 | 15.08
303.15 K, x1 = 0.3 | 1001.42 | 10.86
303.15 K, x1 = 0.3999 | 995.637 | 8.42
303.15 K, x1 = 0.4998 | 990.737 | 6.606
303.15 K, x1 = 0.6 | 986.189 | 5.339
303.15 K, x1 = 0.6996 | 982.143 | 4.426
303.15 K, x1 = 0.7999 | 978.595 | 3.741
303.15 K, x1 = 0.9 | 975.512 | 3.226
303.15 K, x1 = 1 | 972.515 | 2.86
308.15 K, x1 = 0.0999 | 1013.34 | 16.82
308.15 K, x1 = 0.2 | 1004.23 | 12.05
308.15 K, x1 = 0.3 | 997.153 | 8.886
308.15 K, x1 = 0.3999 | 991.238 | 6.935
308.15 K, x1 = 0.4998 | 986.236 | 5.542
308.15 K, x1 = 0.6 | 981.583 | 4.506
308.15 K, x1 = 0.6996 | 977.444 | 3.772
308.15 K, x1 = 0.7999 | 973.812 | 3.212
308.15 K, x1 = 0.9 | 970.644 | 2.796
308.15 K, x1 = 1 | 967.567 | 2.481
313.15 K, x1 = 0.0999 | 1009.36 | 13.4
313.15 K, x1 = 0.2 | 1000.07 | 9.766
313.15 K, x1 = 0.3 | 992.852 | 7.317
313.15 K, x1 = 0.3999 | 986.813 | 5.772
313.15 K, x1 = 0.4998 | 981.71 | 4.666
313.15 K, x1 = 0.6 | 976.954 | 3.848
313.15 K, x1 = 0.6996 | 972.719 | 3.25
313.15 K, x1 = 0.7999 | 969.003 | 2.791
313.15 K, x1 = 0.9 | 965.755 | 2.449
313.15 K, x1 = 1 | 962.603 | 2.181
318.15 K, x1 = 0.0999 | 1005.34 | 10.83
318.15 K, x1 = 0.2 | 995.893 | 8.021
318.15 K, x1 = 0.3 | 988.531 | 6.099
318.15 K, x1 = 0.3999 | 982.364 | 4.873
318.15 K, x1 = 0.4998 | 977.162 | 3.982
318.15 K, x1 = 0.6 | 972.304 | 3.319
318.15 K, x1 = 0.6996 | 967.975 | 2.828
318.15 K, x1 = 0.7999 | 964.179 | 2.449
318.15 K, x1 = 0.9 | 960.848 | 2.163
318.15 K, x1 = 1 | 957.624 | 1.935
323.15 K, x1 = 0.0999 | 1001.29 | 8.864
323.15 K, x1 = 0.2 | 991.678 | 6.665
323.15 K, x1 = 0.3 | 984.178 | 5.141
323.15 K, x1 = 0.3999 | 978.01 | 4.159
323.15 K, x1 = 0.4998 | 972.59 | 3.435
323.15 K, x1 = 0.6 | 967.647 | 2.889
323.15 K, x1 = 0.6996 | 963.208 | 2.483
323.15 K, x1 = 0.7999 | 959.336 | 2.166
323.15 K, x1 = 0.9 | 955.922 | 1.924
323.15 K, x1 = 1 | 952.631 | 1.728
